Source: the NIST ThermoML archive (doi:10.1021/acs.jced.6b00893)
± gives the expanded uncertainty stated by the source. Each block holds one molecule with its values, some of them ahead of it.

Conditions: Liquid, Ebulliometric method (Recirculating still)

Structure (SMILES): C=CCO [2-propenol]
vapor or sublimation pressure (369.75 K): 101.3 ± 0.5 kPa

vapor or sublimation pressure (353.25 K): 101.3 ± 0.5 kPa
Structure (SMILES): c1ccccc1 [benzene]

vapor or sublimation pressure (373.15 K): 101.3 ± 0.5 kPa
Structure (SMILES): O [water]
